Tests used:
[1] = Log P determination, shake flask method; conditions: n-octanol and water
Method: The partition coefficient of the new Pt compounds was determined in n-octanol and water by shake flask method.

OVCAR-8 cell line = assay: MTT cytotoxicity assay; conditions: for IC50 OVCAR-8: 120 h treatment; for IC50: read-out: IC50 OVCAR-8, 120 h incubation
Method: (§4) The in vitro experiments were performed in cell lines of lung cancer (A549), prostate cancer (DU145 and PC-3), pancreatic cancer (BxPC-3) and ovarian cancer (SKOV-3 and OVCAR-8). A549, BxPC-3 and OVCAR-8 cells were grown in RPMI medium supplemented with 10% fetal bovine serum (Gibco), 1% L-glutamine, 100 U/ml penicillin, 100 ug/ml streptomycin and 0.13% w/w gentamycin. PC-3 cells were cultured in DMEM plus 10% fetal bovine serum, 1% L-glutamine, 100 U/ml penicillin, 100 μg/ml streptomycin and 1% pyrovate. DU145 cells were grown in RPMI1640 medium supplemented with 10% fetal bovine serum, 100 U/ml penicillin, and 100 ug/ml streptomycin. SKOV-3 cells were cultured McCoy's 5A medium supplemented with 10% fetal bovine serum, 100 U/ml penicillin, and 100 ug/ml streptomycin. The cell lines were maintained at 37° C. under 5% CO2. […] The drugs were dissolved in DMSO and were added to the appropriate medium. Drug concentrations were chosen in a range that would never expose cells to more than 0.5% DMSO i.e. for 50 μg/ml maximal concentration; 0.5 mg of OXA-PAL-ACT was dissolved in 50 μl DMSO and then added to 10 ml cell medium.
(§5) To evaluate the efficacy of the various drugs, cells were seeded in a sterile, 24-well plate and incubated in the presence of the drug for 72 h/120 h at 37° C., 5% CO2. The number of cells alive was quantified using (3-(4,5-dimethylthiazol-2-yl)-2,5 diphenyltetrazolium bromide) (MTT) assay. The cells were incubated for 2 h with MTT, DMSO was added to dissolve the crystals and the plates were measured at 540 nm. Viability (%) graphs were constructed relative to the control of every assay. The data were plotted in a graph, lines connected the points, and the values were determined from the interpolated graph.
(§6) The cells were treated continuously for 120 h.

CT-26-luc cell line = assay: MTT antiproliferative assay; assay type: cell-based, murine; conditions: 120 h incubation
SKOV-3 cell line = assay: MTT cytotoxicity assay; conditions: for IC50 SKOV-3: 120 h treatment; for IC50: read-out: IC50 SKOV-3, 120 h incubation
Method: as §4, §5, §6

[2] = Reduction potentials by cyclic voltammetry; assay type: physicochemical; conditions: versus Ag/AgCl
A2780-cisR cell line = assay: MTT cytotoxicity assay; assay type: cell-based; conditions: for IC50: cisplatin resistant line; for RF, resistance factor: ratio of IC50 in A2780-cisR to A2780; for IC50 A2780-cisR: 120 h treatment
Method: as §5

BxPC-3 cell line = assay: MTT cytotoxicity assay; conditions: for IC50 BXPC-3: 120 h treatment; for IC50: read-out: IC50 BxPC-3, 120 h incubation
Method: as §4, §5, §6

A2780 cell line = assay: MTT cytotoxicity assay; assay type: cell-based; conditions: for IC50: cisplatin sensitive parent line; for IC50 A2780: 120 h treatment
Method: as §5

PC-3 cell line = assay: MTT cytotoxicity assay; conditions: for IC50 PC-3: 120 h treatment; for IC50: read-out: IC50 PC-3, 120 h incubation
Method: as §4, §5, §6

PC-3 LUC cell line = assay: MTT cytotoxicity assay; conditions: for IC50 PC-3 LUC: 120 h treatment; for IC50: read-out: IC50 PC-3-luc, 120 h incubation
Method: as §5, §6

A549 cell line = assay: MTT cytotoxicity assay; assay type: cell-based; conditions: 120 h treatment
Method: A549, BxPC-3 and OVCAR-8 cells were grown in RPMI medium supplemented with 10% fetal bovine serum (Gibco), 1% L-glutamine, 100 U/ml penicillin, 100 ug/ml streptomycin and 0.13% w/w gentamycin. […] The cell lines were maintained at 37° C. under 5% CO2. All cell culture products were obtained from Biological Industries (Beit HaEmek, Israel). The drugs were dissolved in DMSO and were added to the appropriate medium. Drug concentrations were chosen in a range that would never expose cells to more than 0.5% DMSO i.e. for 50 μg/ml maximal concentration; 0.5 mg of OXA-PAL-ACT was dissolved in 50 μl DMSO and then added to 10 ml cell medium.
as §5

A375 cell line = assay: MTT cytotoxicity assay; assay type: cell-based; conditions: 120 h treatment
Method: as §5

A498 cell line = assay: MTT cytotoxicity assay; assay type: cell-based; conditions: 120 h treatment
Method: as §5

HCT-15 cell line = assay: MTT cytotoxicity assay; assay type: cell-based; conditions: 120 h treatment
Method: as §5

[3] = for body weight variation over time: OXA 5 mg/kg, OXA-PAL-ACT 15 mg/kg i.v. once a week; for maximum tolerated dose: i.v., solution
HCT 116-luc2 cell line = assay: MTT antiproliferative assay; assay type: cell-based, human
Method: (§1) The antiproliferative activities of the novel compound (free and incorporated in NPs) and OXA were determined in HCT 116-luc2 (human colorectal cancer) and BxPc-3-luc2 (human pancreatic cancer) cell lines by the MTT assay.

BxPc-3-luc2 cell line = assay: MTT antiproliferative assay; assay type: cell-based, human
Method: as §1

BxPc-3-luc2 tumor = assay: Pancreatic carcinoma mouse model, bioluminescent imaging; assay type: in vivo, SCID-bg mice; conditions: i.v. once a week, 4 treatments
Description: 5-6 weeks-old SCID mice were inoculated subcutaneously with 2×10^6 BxPC-3-luc cells.
Pancreatic tumors were induced by subcutaneous injection of the luciferase-transfected pancreas adenocarcinoma cells, BxPc-3-luc2, to SCID-bg mice. Tumor development and progression was validated by bioluminescent imaging. On the eighth day following tumor cells injection, a four-treatment cycle (intravenous route) was initiated (once a week).

HCT-116-luc2 tumor = assay: Colon cancer mouse model, bioluminescent imaging; assay type: in vivo, SCID-bg mice; conditions: 33 days from inoculation; 9 mg/kg OPA equivalent to 5 mg/kg OXA, i.v. every fourth day
Method: 5-6 weeks-old SCID mice were inoculated subcutaneously with 1×10^6 HCT-116-luc2 cells. 1 day following tumor inoculation, treatment was initiated. Treatment was administered once every fourth day by i.v. injection (tail), 4 treatments in total.
Results are presented as mean±SEM. […] In fact equivalent doses were […] since 9 mg/kg OPA is equivalent to 5 mg/kg OXA.

HaCaT cell line = conditions: non-cancer human keratinocytes
Description: (§2) HaCaT cell line monolayer representing human keratinocytes, RASM line monolayer representing Rat Aortic Smooth Muscle cells.

[4] = tested on: RASM (Rat Aortic Smooth Muscle cells); conditions: non-cancer Rat Aortic Smooth Muscle cells
Description: as §2

SKOV-3 luc tumor = assay: Ovarian carcinoma mouse model, bioluminescent imaging; assay type: in vivo, SCID mice; conditions: from day 60; 15 mg/kg i.v. once a week, 4 treatments
Method: For induction of an ovarian carcinoma mouse model, 5-6 weeks-old severe combined immunodeficiency (SCID) mice, divided into 4 groups, were injected with 2×10^6 SKOV-3 luc cells directly into intraperitoneal cavity (i.p.). The cells were suspended in 100 μl PBS.
All treatments were given in an identical treatment regimen.

[5] = tested on: SKOV-3 and SKOV-3-luc cells; assay: Whole-cell Pt accumulation (cellular uptake) by ICP-MS; assay type: cell-based, human; conditions: 24 h exposure, 5, 15, 25 μg/ml
Method: (§3) Following incubation, the drug-containing medium was removed, and cells were rinsed twice with cold PBS, trypsinized and were centrifuged into a pellet (4400 rpm, 5 min). 500 μl of nitric acid was added to cell pellets, and overnight incubated at 70° C. The samples were prepared by dilution using 0.1% SDS and 1% nitric acid lysis solution, and analyzed for Pt content by ICP-MS. DNA was isolated and purified from cell lines with the DNeasy Blood and Tissue Kit (Qiagen).
Cellular accumulation of platinum is a key step in cellular platinum drug pharmacology.

SKOV-3 cells = assay: DNA platination by ICP-MS; assay type: cell-based, human; conditions: 24 h exposure, 25 μg/ml
Method: as §3

Row | Compound | Measured logP [1] | IC50 OVCAR-8 (OVCAR-8 cell line) [µg/mL] | IC50 (OVCAR-8 cell line) [nM] | IC50 (CT-26-luc cell line) [nM] | IC50 SKOV-3 (SKOV-3 cell line) | IC50 (SKOV-3 cell line) [nM] | Ep, reduction potential [2] [V] | IC50 (A2780-cisR cell line) [nM] | RF, resistance factor (A2780-cisR cell line) | IC50 BXPC-3 (BxPC-3 cell line) [µg/mL] | IC50 (BxPC-3 cell line) [nM] | IC50 (A2780 cell line) [nM] | IC50 PC-3 (PC-3 cell line) [µg/mL] | IC50 (PC-3 cell line) [nM] | IC50 PC-3 LUC (PC-3 LUC cell line) [µg/mL] | IC50 (PC-3 LUC cell line) [nM] | IC50 A549 (A549 cell line) [µg/mL] | IC50 A375 (A375 cell line) [µg/mL] | IC50 A498 (A498 cell line) [µg/mL] | IC50 HCT-15 (HCT-15 cell line) [µg/mL] | also measured
1 | CCCCCCCCCCCCCCCC(=O)[O][Pt]1([O]C(=O)CCCCCCCCCCCCCCC)[O]C(=O)C(=O)[O]1.NC1CCCCC1N [OXADP, oxaliplatin dipalmitate] | 3.49 | 16 ± 3.12 | 17600 ± 3430 | > 55000 | N.D* (N.D—Not Determined (The IC50 value is higher than maximal tested concentration-50 μg/ml)) | > 55000 | −0.53 ± 0.02 | > 55000 | >7.3 | 24.07 ± 12.96 | 26500 ± 14300 | 7500 ± 500 | 2.20 ± 1.21 | 2420 ± 1330 | 21.35 ± 19.30 | 23500 ± 21200 | – | – | – | – | –
2 | CCCCCCCCCCCCCCCC(=O)[O][Pt]1([O]C(=O)CCC(=O)O)[O]C(=O)C(=O)[O]1.NC1CCCCC1N [OXA-PAL-SUCC] | 2.07 | 2.83 ± 0.38 | 3670 ± 490 | 4430 ± 930 | 20.67 ± 15.88 µg/mL | 26800 ± 20600 | −0.60 ± 0.01 | 1900 ± 200 | 4.13 | 1.23 ± 1.18 | 1590 ± 1520 | 460 ± 10 | 0.35 ± 0.01 | 450 ± 10 | 0.78 ± 0.88 | 1010 ± 1130 | 0.45 | 0.19 | 0.24 | 0.35 | –
3 | O=C1[O][Pt]2([NH][C@@H]3CCCC[C@H]3[NH]2)[O]C1=O [Oxaliplatin, reference compound] | – | 3.75 ± 1.77 | 9440 ± 4440 | 5600 ± 600 | 32.5 ± 3.54 µg/mL | 58300 ± 6340 | – | 4100 ± 250 | – | 1.35 ± 0.35 | 3380 ± 870 | 780 ± 20 | 3.63 ± 0.15 | 9160 ± 370 | 11 ± 3.60 | 27700 ± 9050 | – | – | – | – | body weight variation over time [3]: marked weight reduction; maximum tolerated dose [3]: 5 mg/kg; IC50 A2780-cisR (A2780-cisR cell line): 1.63 ± 0.11 µg/mL; IC50 (HCT 116-luc2 cell line): 2300 ± 1080 nM; IC50 (BxPc-3-luc2 cell line): 62700 ± 2520 nM; IC50 A2780 (A2780 cell line): 0.31 µg/mL; pancreatic tumor growth inhibition (BxPc-3-luc2 tumor): did not show any efficacy
4 | CCCCCCCCCCCCCCCC(=O)[O][Pt]12([O]C(C)=O)([NH]C3CCCCC3[NH]1)[O]C(=O)C(=O)[O]2 (centres unmarked) [OXA-PAL-ACT, oxaliplatin palmitate acetate] | 2.06 | 0.33 ± 0.03 | 460 ± 30 | 620 ± 240 | 0.39 ± 0.02 µg/mL | 540 ± 30 | −0.54 ± 0.02 | 340 ± 10 | 0.93 | 0.25 ± 0.01 | 350 ± 10 | 360 ± 10 | 0.25 ± 0.01 | 350 ± 10 | 0.33 ± 0.08 | 460 ± 110 | 0.34 | 0.16 | 0.20 | 0.43 | observed Log P ([1]; n=5): 2.76±0.14; body weight variation over time [3]: did not reduce the animal weight; maximum tolerated dose [3]: 15 mg/kg; tumor growth inhibition (HCT-116-luc2 tumor): no significant efficacy difference; therapeutic ratio in HaCaT (HaCaT cell line): higher than 1.8; therapeutic ratio in RASM [4]: > 2; IC50 A2780-cisR (A2780-cisR cell line): 0.24 µg/mL; resistance factor (A2780-cisR cell line; calculated from IC50 values of dose-response curves, A2780-cisR vs A2780 (FIG. 10)): 1; tumor growth (bioluminescence) efficacy (SKOV-3 luc tumor): more efficient that OXA; IC50 (HCT 116-luc2 cell line): 370 ± 20 nM; IC50 (BxPc-3-luc2 cell line): 310 ± 90 nM; cellular accumulation of platinum [5]: substantially higher compared to that of oxaliplatin; nucleus DNA platination (SKOV-3 cells): higher DNA-platination; IC50 A2780 (A2780 cell line): 0.26 µg/mL; pancreatic tumor growth inhibition (BxPc-3-luc2 tumor): significantly more efficient in pancreatic tumor growth inhibition compared to OXA and the control
5 | N.N.[Cl][Pt][Cl] [Cisplatin, cisplatin, reference compound] | – | – | – | – | – | – | – | 14600 ± 1440 | 15.53 | – | – | 940 ± 40 | – | – | – | – | 8.35 | 3.75 ± 1.77 | 17.53 | 11.32 | –
